Key:
[1] = Solubility test in distilled water; assay type: physicochemical; conditions: thermodynamic from solid
[2] = target: T1, bovine sperm-derived β-D-galactosidase (Bos taurus, UniProt Q58D55); experiment: Measurement of acidic β-galactosidase inhibitory activity (4-methylumbelliferyl substrate, fluorescence); assay type: biochemical; conditions: 0.2 M acetate buffer pH 4.4, 25° C., 30 minutes; read-out: 50% Inhibition concentration (IC50 value)
T1 construct: bovine sperm-derived β-D-galactosidase (manufactured by Signa); purchased Sigma; host or cells: bovine sperm (tissue-derived)
T1 sequence (Q58D55 28-653): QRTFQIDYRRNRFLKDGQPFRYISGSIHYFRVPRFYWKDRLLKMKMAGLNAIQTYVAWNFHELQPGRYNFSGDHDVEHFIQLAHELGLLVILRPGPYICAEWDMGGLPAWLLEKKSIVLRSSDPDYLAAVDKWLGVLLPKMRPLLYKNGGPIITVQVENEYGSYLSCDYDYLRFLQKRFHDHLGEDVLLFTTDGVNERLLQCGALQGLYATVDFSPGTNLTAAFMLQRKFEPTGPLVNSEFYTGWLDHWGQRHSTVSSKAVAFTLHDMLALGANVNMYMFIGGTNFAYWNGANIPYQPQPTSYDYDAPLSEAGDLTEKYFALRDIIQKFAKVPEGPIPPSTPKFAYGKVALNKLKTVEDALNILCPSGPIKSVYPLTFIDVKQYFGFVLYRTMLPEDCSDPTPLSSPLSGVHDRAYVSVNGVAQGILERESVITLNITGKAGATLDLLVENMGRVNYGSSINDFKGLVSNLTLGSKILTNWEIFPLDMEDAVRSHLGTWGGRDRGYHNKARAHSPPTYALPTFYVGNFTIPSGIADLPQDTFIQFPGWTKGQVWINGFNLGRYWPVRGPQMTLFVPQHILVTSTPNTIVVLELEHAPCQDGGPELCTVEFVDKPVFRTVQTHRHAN
Method: Each of Substances A-2 to 7 of the invention dissolved in water for injection, to which DMSO had been added and dissolved therein, if necessary, was diluted with a 0.2 M acetate buffer (pH 4.4) to give a concentration of 0.05, 0.125, 0.25, 0.5, 1.0, 2.5 or 5.0 μM and added at 25 μl into a 96 well microplate. Then, a 0.2 M acetate buffer (pH 4.4) solution of bovine sperm-derived β-D-galactosidase (manufactured by Signa) was added at 25 μl, and 4-methylumbelliferyl-β-D-galactopyranoside (10 μM) was further added as a fluorescence substrate at 50 μl, followed by incubation at 25° C. for 30 minutes. Then, the reaction was stopped by adding 100 μl of 2 M Na2CO3, and an amount of 4-methylumbelliferone released by the enzyme reaction (fluorescence intensity) was measured (excitation wavelength 355 nm, measuring wavelength 460 nm) by a fluorescence reader (product name; ARVOSX manufactured by WALLAC). An amount of the 4-methylumbelliferone released at the time of not adding the inhibitor was defined as 100%, and quantitative change in the 4-methylumbelliferone formed by addition of each substance to be evaluated was relatively evaluated. In addition, as the 50% inhibition concentration (IC50 value), the concentration of each substance of the invention which reduces 50% of the concentration of 4-methylumbelliferone at the time of un-adding each substance of the invention was calculated from an inhibition curve.

Row | Compound | solubility ([1]; 19° C., distilled water added to 5.4 mg of sample) [mg/mL] | IC50 [2] [nM] | solubility ([1]; distilled water, water, 24° C.) [mg/mL]
1 | CCCCCCCCCCCCCCN[C@@H]1C=C(CO)[C@H](O)[C@H](O)[C@H]1O [Substance A-5] | – | 2690 | –
2 | CCCCCCCCCCN[C@@H]1C=C(CO)[C@H](O)[C@H](O)[C@H]1O [Substance A-3] | – | 301 | –
3 | CCCCCCCCN[C@@H]1C=C(CO)[C@H](O)[C@H](O)[C@H]1O [Substance A-2] | – | 476 | ≥ 300

Results, then the molecule that gave them:

Row | solubility ([1]; 19° C., distilled water added to 5.4 mg of sample) [mg/mL] | IC50 [2] [nM] | solubility ([1]; distilled water, water, 24° C.) [mg/mL] | Compound
4 | > 108 | – | – | CCCCCCCCNC1C=C(CO)C(O)C(O)C1O (stereo not shown) [Substance B-2]
5 | – | 1430 | – | CCCCCCCCCCCCN[C@@H]1C=C(CO)[C@H](O)[C@H](O)[C@H]1O [Substance A-4]
6 | – | 1790 | – | CCCCCCCCCCCCCCCCCCN[C@@H]1C=C(CO)[C@H](O)[C@H](O)[C@H]1O [Substance A-6]
